Measurements reported in ChEMBL document CHEMBL1221277, “Design, synthesis and anticholinesterase activity of a novel series of 1-benzyl-4-((6-alkoxy-3-oxobenzofuran-2(3H)-ylidene) methyl) pyridinium derivatives” (Bioorg Med Chem, 2010).

Target: Acetylcholinesterase (Electrophorus electricus, UniProt O42275)
Experiment: Inhibition of electric eel AChE by Ellman's method

Acetylcholinesterase, sequence (O42275 whole entry): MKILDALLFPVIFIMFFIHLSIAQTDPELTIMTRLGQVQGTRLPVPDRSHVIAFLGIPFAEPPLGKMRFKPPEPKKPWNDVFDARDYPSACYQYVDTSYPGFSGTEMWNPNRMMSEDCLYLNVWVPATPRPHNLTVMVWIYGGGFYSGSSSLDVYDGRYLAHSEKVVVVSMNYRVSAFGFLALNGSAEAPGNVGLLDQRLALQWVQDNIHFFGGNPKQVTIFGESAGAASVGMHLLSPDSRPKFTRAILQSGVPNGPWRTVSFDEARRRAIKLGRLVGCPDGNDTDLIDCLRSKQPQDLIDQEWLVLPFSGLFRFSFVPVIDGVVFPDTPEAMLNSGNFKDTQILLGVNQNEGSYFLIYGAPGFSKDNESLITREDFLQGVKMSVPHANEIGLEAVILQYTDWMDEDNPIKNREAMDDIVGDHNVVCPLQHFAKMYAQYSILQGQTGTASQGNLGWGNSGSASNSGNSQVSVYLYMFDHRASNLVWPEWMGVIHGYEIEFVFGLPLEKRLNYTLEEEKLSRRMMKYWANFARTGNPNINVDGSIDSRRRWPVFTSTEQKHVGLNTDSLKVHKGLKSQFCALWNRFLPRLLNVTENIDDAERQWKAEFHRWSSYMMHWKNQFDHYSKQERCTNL

Row | Structure (SMILES) | IC50
1 | CCCOc1ccc2c(c1)O/C(=C\c1cc[n+](Cc3ccc(C)cc3)cc1)C2=O | 0.612 µM
2 | CCOc1ccc2c(c1)O/C(=C\c1cc[n+](Cc3ccc(C)cc3)cc1)C2=O | 0.79 µM
3 | CCCOc1ccc2c(c1)O/C(=C\c1cc[n+](Cc3ccccc3)cc1)C2=O | 0.08 µM
4 | CCCOc1ccc2c(c1)O/C(=C\c1cc[n+](Cc3ccccc3F)cc1)C2=O | 0.05 µM
5 | CCCOc1ccc2c(c1)O/C(=C\c1cc[n+](Cc3cccc(F)c3)cc1)C2=O | 0.107 µM
6 | CCCOc1ccc2c(c1)O/C(=C\c1cc[n+](Cc3ccc(F)cc3)cc1)C2=O | 0.068 µM
7 | CCCOc1ccc2c(c1)O/C(=C\c1cc[n+](Cc3ccccc3C)cc1)C2=O | 0.328 µM
8 | CCCOc1ccc2c(c1)O/C(=C\c1cc[n+](Cc3cccc(C)c3)cc1)C2=O | 0.234 µM
9 | COc1ccc2c(c1)O/C(=C\c1cc[n+](Cc3ccc(C)cc3)cc1)C2=O | 0.475 µM
10 | CCOc1ccc2c(c1)O/C(=C\c1cc[n+](Cc3ccccc3)cc1)C2=O | 0.063 µM
11 | CCOc1ccc2c(c1)O/C(=C\c1cc[n+](Cc3ccccc3F)cc1)C2=O | 0.032 µM
12 | CCOc1ccc2c(c1)O/C(=C\c1cc[n+](Cc3cccc(F)c3)cc1)C2=O | 0.048 µM
13 | CCOc1ccc2c(c1)O/C(=C\c1cc[n+](Cc3ccc(F)cc3)cc1)C2=O | 0.051 µM
14 | CCOc1ccc2c(c1)O/C(=C\c1cc[n+](Cc3ccccc3C)cc1)C2=O | 0.546 µM
15 | CCOc1ccc2c(c1)O/C(=C\c1cc[n+](Cc3cccc(C)c3)cc1)C2=O | 0.399 µM
16 | COc1ccc2c(c1)O/C(=C\c1cc[n+](Cc3ccccc3)cc1)C2=O | 0.041 µM
17 | COc1ccc2c(c1)O/C(=C\c1cc[n+](Cc3ccccc3F)cc1)C2=O | 0.01 µM
18 | COc1ccc2c(c1)O/C(=C\c1cc[n+](Cc3cccc(F)c3)cc1)C2=O | 0.06 µM
19 | COc1ccc2c(c1)O/C(=C\c1cc[n+](Cc3ccc(F)cc3)cc1)C2=O | 0.022 µM
20 | COc1ccc2c(c1)O/C(=C\c1cc[n+](Cc3ccccc3C)cc1)C2=O | 0.068 µM
21 | COc1ccc2c(c1)O/C(=C\c1cc[n+](Cc3cccc(C)c3)cc1)C2=O | 0.123 µM
